Test results reported in patent publication US11026946B2, “Pharmacologically active alicyclic-substituted pyrazolo[1,5-a]pyrimidine derivatives” (RICHTER GEDEON NYRT., priority 2017, dated 2021).

Columns and labels:
GABAB receptor = target: T1, GABAB receptor (Rattus norvegicus, UniProt O88871+Q9Z0U4); assay: In vitro [35S]GTPγS binding assay in rat cortical membranes; assay type: biochemical; conditions: PAM EC50, [35S]GTPγS binding, read-out: In vitro PAM potency
T1 construct: from tissue; host or cells: rat brain cortex membranes
Description: In Vitro [^35S]GTPγS Binding Assay in Rat Cortical Membranes
Cortices of freshly harvested rat brains were dissected on an ice-cold surface and homogenized by a glass Dounce homogeniser immediately in ice-cold buffer containing 50 mM Tris, 5 mM MgCl2 and 1 mM EDTA (pH=7.6). Tissue homogenates were centrifuged at 40000 g for 15 min at 4° C. Membrane pellets were resuspended in the same buffer and membranes were incubated for 10 min at 30° C. in a shaking water bath to eliminate endogenous GABA. Homogenates were centrifuged again under the same conditions. The final pellets were resuspended in ice-cold buffer (pH=7.6) containing 50 mM Tris, 100 mM NaCl, 7 mM MgCl2, 1 mM EDTA and 1 mM dithiotreithol (DTT) to yield a concentration of 20 mg tissue weight/ml and frozen at −70° C. until use. The assay was done in a buffer containing 50 mM Tris (pH=7.4), 100 mM NaCl, 7 mM MgCl2, 1 mM EDTA and 1 mM DTT. Each assay tube contained 150 μL GDP (in a final concentration of 50 μM), 100 μL ligand and 125 μL of the membrane suspension (250 μg tissue/tube). The assay tubes were preincubated for 10 min at 30° C. to assure equilibrium. Nonspecific binding was determined in the presence of 10 μM GTPγS: basal binding was determined in the presence of buffer only. After addition of 50 pM [^35S]GTPγS in a volume of 25 μL to the tubes, membranes were incubated for an additional 60 min at 30° C. The assay was terminated by rapid filtration through Packard UniFilter GF/B using a Packard harvester and washed four times with 1 ml ice-cold buffer. After drying the filters at 40° C. for 1 h, 40 μL Microscint (Packard) was added to the filters and radioactivity of the filters was determined by a TopCount NXT (PerkinElmer, Waltham, Mass.: Alper and Nelson, Eur. J. Pharmacol. 1998, 343, 303-312; Rinken et al, Biochem. Pharmacol. 1999, 57, 155-162). Data thus gathered were used to determine PAM EC50 values for each compound as primary in vitro activity end point.

adult rats = assay: Foot shock-induced ultrasonic vocalization (USV) in adult rats; assay type: in vivo, rat; conditions: 1 mg/kg per os, 1 h before shocking, male Wistar rats, versus vehicle
Description: Foot Shock-Induced Ultrasonic Vocalization (USV) in Adult Rats
(§1) Under stressful conditions, adult rats emit 22 kHz ultrasounds that can be reduced by various pharmacological treatments (De Vry et al, Eur. J. Pharmacol. 1993, 249, 331-339; Sanchez, Eur. J. Pharmacol. 2003, 463, 133-143). […] Therefore, a foot shock-induced vocalization paradigm in adult rats was used to assess efficacy of centrally acting GABAB receptor ligands. Behavioral measurements were carried out on male Wistar rats (200-250 g, Toxicoop, Hungary). Rats were housed in groups of four in plastic cages with a wire grid top in a temperature and light-controlled laboratory animal care unit (22±2° C., 12-h light/dark cycle, lights on at 6:00 AM) with ad libitum access to commercial pellet rat food and tap water. Investigations were approved by the Local Ethical Committee of Gedeon Richter Plc. and were carried out in strict compliance with the European Directive 2010/63/EU regarding the care and use of laboratory animals for experimental procedures and all efforts were made to minimize the number of animals as well as their suffering. In order to evoke emission of ultrasounds, animals were footshocked after a habituation period of 30 s (6 shocks, 1 s, 0.8 mA each, inter-shock interval 10 s) in a sound attenuated shocking chamber (Experimetria, 40×40×80 cm). Investigational compounds were administered at the dose of 1 mg/kg in a solid dispersion formulation in distilled water 1 h before shocking per os. Vocalizations were measured right after the last footshock for 10 min with a Metris Sonotrack system and the total time of vocalizations was registered. Vocalization of parallel vehicle treated animals was considered as control value and inhibition percent was calculated for each compound. At approximately 75 min after treatment and behavioral measurements, blood and brain samples were harvested in order to determine exposures associated with in vivo activity.

[1] = Plasma and brain levels after the USV assay; assay type: in vivo, rat; conditions: 1 mg/kg per os, approximately 75 min after treatment; for brain exposure at 1 mg/kg: rat brain; for plasma exposure at 1 mg/kg: rat plasma
Description: as §1
In Table 2 compounds of this invention measured in the USV assay are listed. In Table 3 plasma and brain levels of compounds of this invention are listed.

GABAB receptors = GABAB receptors (Homo sapiens, UniProt O75899+Q9UBS5); conditions: in vitro positive allosteric activity, [35S]GTPγS binding; cited from earlier work
Chain of GABAB receptors (O75899 42-941): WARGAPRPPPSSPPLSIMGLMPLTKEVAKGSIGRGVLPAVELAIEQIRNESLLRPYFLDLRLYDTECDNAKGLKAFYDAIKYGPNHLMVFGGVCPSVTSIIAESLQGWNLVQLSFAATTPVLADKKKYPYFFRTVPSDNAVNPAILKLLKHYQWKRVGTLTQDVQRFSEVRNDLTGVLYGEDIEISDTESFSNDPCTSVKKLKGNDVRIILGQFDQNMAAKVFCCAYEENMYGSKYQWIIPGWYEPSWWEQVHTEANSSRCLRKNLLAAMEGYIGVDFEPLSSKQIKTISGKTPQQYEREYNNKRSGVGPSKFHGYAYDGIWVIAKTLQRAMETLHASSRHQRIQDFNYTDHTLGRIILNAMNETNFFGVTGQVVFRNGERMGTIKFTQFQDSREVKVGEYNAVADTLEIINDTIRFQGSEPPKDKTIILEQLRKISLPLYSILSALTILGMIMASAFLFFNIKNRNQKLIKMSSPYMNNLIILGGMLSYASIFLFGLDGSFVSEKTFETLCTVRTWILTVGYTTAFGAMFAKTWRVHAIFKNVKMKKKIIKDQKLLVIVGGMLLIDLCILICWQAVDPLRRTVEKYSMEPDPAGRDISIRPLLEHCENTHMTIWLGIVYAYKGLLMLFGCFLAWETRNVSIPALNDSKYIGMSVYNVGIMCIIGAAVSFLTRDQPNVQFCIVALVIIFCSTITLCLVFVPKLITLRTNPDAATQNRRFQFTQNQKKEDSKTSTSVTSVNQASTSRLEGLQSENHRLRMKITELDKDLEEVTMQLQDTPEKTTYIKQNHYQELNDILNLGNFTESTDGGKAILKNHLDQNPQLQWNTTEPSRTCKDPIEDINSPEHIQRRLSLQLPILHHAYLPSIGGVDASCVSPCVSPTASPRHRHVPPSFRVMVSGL
Chain of GABAB receptors (Q9UBS5 15-961 limits assumed): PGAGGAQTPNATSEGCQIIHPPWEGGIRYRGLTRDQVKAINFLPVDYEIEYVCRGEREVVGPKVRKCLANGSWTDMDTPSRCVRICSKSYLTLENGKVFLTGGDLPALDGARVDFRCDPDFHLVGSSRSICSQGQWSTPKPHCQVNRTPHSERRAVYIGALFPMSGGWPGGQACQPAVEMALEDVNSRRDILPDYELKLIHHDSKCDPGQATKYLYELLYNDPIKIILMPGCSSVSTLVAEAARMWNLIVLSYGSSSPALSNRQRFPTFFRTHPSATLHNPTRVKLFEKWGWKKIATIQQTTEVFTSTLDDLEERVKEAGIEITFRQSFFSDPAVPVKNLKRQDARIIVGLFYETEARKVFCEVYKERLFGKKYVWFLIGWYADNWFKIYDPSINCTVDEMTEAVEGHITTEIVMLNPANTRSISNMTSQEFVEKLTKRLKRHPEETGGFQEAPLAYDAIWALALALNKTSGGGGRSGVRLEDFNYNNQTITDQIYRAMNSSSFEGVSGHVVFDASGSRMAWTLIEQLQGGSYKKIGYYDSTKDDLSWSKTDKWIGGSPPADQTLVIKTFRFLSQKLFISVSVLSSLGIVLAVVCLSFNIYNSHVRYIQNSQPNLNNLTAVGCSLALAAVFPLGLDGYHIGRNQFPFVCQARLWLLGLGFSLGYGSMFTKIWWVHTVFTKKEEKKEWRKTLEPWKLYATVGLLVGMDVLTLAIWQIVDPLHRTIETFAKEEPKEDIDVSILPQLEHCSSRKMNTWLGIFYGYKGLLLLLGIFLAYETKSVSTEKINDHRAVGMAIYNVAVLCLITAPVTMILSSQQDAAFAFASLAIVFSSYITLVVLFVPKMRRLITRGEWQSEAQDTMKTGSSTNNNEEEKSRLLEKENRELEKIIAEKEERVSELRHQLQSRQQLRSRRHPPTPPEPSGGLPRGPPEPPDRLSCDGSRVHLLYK

T1 sequence (O88871 41-940): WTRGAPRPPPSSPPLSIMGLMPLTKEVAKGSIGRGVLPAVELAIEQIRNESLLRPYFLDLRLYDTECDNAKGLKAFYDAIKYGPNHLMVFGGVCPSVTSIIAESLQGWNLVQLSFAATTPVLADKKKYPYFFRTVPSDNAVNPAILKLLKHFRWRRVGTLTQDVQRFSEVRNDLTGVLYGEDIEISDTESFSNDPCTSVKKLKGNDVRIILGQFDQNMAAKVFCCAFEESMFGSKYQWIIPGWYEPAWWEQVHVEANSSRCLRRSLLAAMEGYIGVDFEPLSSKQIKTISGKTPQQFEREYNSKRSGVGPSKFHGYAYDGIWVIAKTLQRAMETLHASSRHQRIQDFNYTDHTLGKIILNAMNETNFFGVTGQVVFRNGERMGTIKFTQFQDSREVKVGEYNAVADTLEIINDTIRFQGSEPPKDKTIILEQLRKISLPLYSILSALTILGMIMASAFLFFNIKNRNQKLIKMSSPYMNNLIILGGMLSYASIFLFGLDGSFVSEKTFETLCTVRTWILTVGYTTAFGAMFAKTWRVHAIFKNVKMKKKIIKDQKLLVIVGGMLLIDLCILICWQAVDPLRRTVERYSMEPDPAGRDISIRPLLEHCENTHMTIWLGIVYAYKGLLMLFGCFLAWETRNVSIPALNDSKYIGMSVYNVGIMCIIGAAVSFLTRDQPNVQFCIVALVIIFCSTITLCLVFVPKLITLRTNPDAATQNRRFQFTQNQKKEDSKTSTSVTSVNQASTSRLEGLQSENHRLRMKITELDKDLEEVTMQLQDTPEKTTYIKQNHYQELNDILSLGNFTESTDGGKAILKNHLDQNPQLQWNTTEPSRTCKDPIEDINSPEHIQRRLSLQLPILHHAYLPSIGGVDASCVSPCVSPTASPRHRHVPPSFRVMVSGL
T1 sequence (Q9Z0U4 17-960 limits assumed): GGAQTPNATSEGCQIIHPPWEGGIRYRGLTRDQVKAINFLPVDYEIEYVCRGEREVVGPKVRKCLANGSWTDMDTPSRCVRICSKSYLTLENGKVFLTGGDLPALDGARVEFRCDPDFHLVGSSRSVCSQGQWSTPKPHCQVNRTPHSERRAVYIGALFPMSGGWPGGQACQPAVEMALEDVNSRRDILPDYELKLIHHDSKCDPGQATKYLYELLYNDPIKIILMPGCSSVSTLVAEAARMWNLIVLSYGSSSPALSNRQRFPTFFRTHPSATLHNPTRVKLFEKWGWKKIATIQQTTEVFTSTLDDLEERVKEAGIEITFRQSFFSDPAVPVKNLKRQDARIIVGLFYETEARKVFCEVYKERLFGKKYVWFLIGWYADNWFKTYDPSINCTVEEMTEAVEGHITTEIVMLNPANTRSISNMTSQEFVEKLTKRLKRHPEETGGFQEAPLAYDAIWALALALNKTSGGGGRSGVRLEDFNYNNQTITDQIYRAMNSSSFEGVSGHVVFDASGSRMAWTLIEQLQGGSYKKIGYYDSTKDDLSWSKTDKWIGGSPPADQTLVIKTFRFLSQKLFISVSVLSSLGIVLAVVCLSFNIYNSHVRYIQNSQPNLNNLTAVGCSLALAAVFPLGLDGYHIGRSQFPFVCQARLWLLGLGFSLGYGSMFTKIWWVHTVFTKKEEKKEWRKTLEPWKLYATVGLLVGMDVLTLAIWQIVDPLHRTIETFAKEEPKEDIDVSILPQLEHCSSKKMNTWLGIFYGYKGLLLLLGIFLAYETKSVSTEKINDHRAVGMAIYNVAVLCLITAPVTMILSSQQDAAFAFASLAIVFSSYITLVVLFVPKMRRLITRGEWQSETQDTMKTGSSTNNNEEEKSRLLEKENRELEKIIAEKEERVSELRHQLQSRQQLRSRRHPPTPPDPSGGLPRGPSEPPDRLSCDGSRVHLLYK

Row | EC50 (GABAB receptor) [nM] | brain exposure at 1 mg/kg [1] [ng/g] | plasma exposure at 1 mg/kg [1] [ng/mL] | Structure (SMILES) | USV inhibition at 1 mg/kg (%) (adult rats) | binding potency (Faghih et al.) (GABAB receptors)
1 | 1 to 10 | 62 | 121 | CC[C@]1(C(=O)O)CCCN(c2c(C(C)C)c(C)nc3cc([C@H]4CC[C@H](C(F)(F)F)CC4)nn23)C1 (single isomer, unassigned) [Example 12] | 59 | 
2 | < 1 | 31 | 124 | CC[C@@]1(C(=O)O)CCCN(c2c(C(C)C)c(C)nc3cc([C@H]4CC[C@H](C(F)(F)F)CC4)nn23)C1 (single isomer, unassigned) [Example 13] | 97 | 
3 | 1 to 10 | 53 | 170 | Cc1nc2c(F)c([C@H]3CC[C@H](C(F)(F)F)CC3)nn2c(N2CCC[C@](C)(C(=O)O)C2)c1C(C)C (single isomer, unassigned) [Example 15] | 89 | 
4 | < 1 | 36 | 131 | Cc1nc2c(F)c([C@H]3CC[C@H](C(F)(F)F)CC3)nn2c(N2CCC[C@@](C)(C(=O)O)C2)c1C(C)C (single isomer, unassigned) [Example 16] | 100 | 
5 | < 1 | 30 | 175 | CC[C@@]1(C(=O)O)CCCN(c2c(C(C)C)c(C)nc3c(F)c([C@H]4CC[C@H](C(F)(F)F)CC4)nn23)C1 (single isomer, unassigned) [Example 18] | 75 | 
6 | 1 to 10 | 74 | 188 | Cc1nc2cc([C@H]3CC[C@H](C(F)(F)F)CC3)nn2c(N2CCC[C@](C(=O)O)(C(C)C)C2)c1C(C)C [Example 2, (3S)-1-[5-Methyl-6-(propan-2-yl)-2-[trans-4-(trifluoromethyl)cyclohexyl]-pyrazolo[1,5-a]pyrimidin-7-yl]-3-(propan-2-yl)piperidine-3-carboxylic Acid] | 85 | 
7 | < 1 | 18 | 58 | Cc1nc2cc([C@H]3CC[C@H](C(F)(F)F)CC3)nn2c(N2CCC[C@@](C)(C(=O)O)C2)c1C(C)C [Example 3, (3R)-3-methyl-1-[5-methyl-6-(propan-2-yl)-2-[trans-4-(trifluoromethyl)cyclohexyl]-pyrazolo [1,5-a]pyrimidin-7-yl]piperidine-3-carboxylic Acid] | 100 | 
8 | 1 to 10 | 68 | 146 | Cc1nc2cc([C@H]3CC[C@H](C(F)(F)F)CC3)nn2c(N2CCC[C@](C)(C(=O)O)C2)c1C(C)C [Example 11] | 71 | 

Further lines, the compound ahead of its results:

Row | Structure (SMILES) | EC50 (GABAB receptor) [nM] | brain exposure at 1 mg/kg [1] [ng/g] | plasma exposure at 1 mg/kg [1] [ng/mL] | USV inhibition at 1 mg/kg (%) (adult rats) | binding potency (Faghih et al.) (GABAB receptors)
9 | CC[C@]1(C(=O)O)CCCN(c2c(C(C)C)c(C)nc3c(F)c([C@H]4CC[C@H](C(F)(F)F)CC4)nn23)C1 (single isomer, unassigned) [Example 17] | 1 to 10 | 74 | 135 | 79 | 
10 | CCC(c1ccc(Cl)cc1)c1cc2nc(C)cc(N3CCCCC3CCO)n2n1 (stereo not drawn) [Example 3-1] |  |  |  |  | nanomolar
11 | CCCC(c1ccc(Cl)cc1)c1cc2nc(C)cc(N3CCCCC3CCO)n2n1 (stereo not drawn) [Example 5-1] |  |  |  |  | nanomolar
12 | Cc1cc(N2CCCCC2CCO)n2nc(CC34CC5CC(CC(C5)C3)C4)cc2n1 (stereo not drawn) [Example 7-1] |  |  |  |  | high micromolar
13 | CCc1nc2cc([C@H]3CC[C@H](C(F)(F)F)CC3)nn2c(N2CCC[C@@](C)(C(=O)O)C2)c1CC [Example 33] |  | 34 | 172 | 63 | 
14 | C[C@@]1(C(=O)O)CCCN(c2c3c(nc4cc([C@H]5CC[C@H](C(F)(F)F)CC5)nn24)CCCC3)C1 [Example 34] | 1 to 10 |  |  |  | 
15 | C[C@@]1(C(=O)O)CCCN(c2c3c(nc4cc([C@H]5CC[C@H](C(F)(F)F)CC5)nn24)CCCCC3)C1 [Example 35] | 1 to 10 | 35 | 207 | 57 | 
16 | C[C@]1(C(=O)O)CCCN(c2c3c(nc4cc([C@H]5CC[C@H](C(F)(F)F)CC5)nn24)CCOC3)C1 [Example 36] | 100 to 1000 |  |  |  | 
17 | C[C@]1(C(=O)O)CCCN(c2c3c(nc4cc([C@H]5CC[C@H](C(F)(F)F)CC5)nn24)COCC3)C1 [Example 37] | 100 to 1000 |  |  |  | 
18 | Cc1nc2c(F)c(C3CCC(F)(F)CC3)nn2c(N2CCC[C@@](C)(C(=O)O)C2)c1C(C)C [Example 40] | 1 to 10 |  |  |  | 
19 | C[C@@]1(C(=O)O)CCCN(c2c3c(nc4cc([C@H]5CC[C@H](C(F)(F)F)CC5)nn24)COCC3)C1 [Example 42] | 100 to 1000 |  |  |  | 
